Source: US9546164B2 (GENENTECH, INC., priority 2013, dated 2017)
Where a name gives a salt, the structure may show the parent alone. Read-outs that look alike come from different tables or passages of the source.

Target: hNav1.7 (Homo sapiens (Human), UniProt Q15858)
Experiment: Tritiated sulfonamide competitive binding to membranes from cells expressing hNav1.7 and the β1 subunit;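 also: Filter-bound radioactivity counted by liquid scintillation, nonspecific binding defined with excess unlabelled ligand, IC50 fitted to percent inhibition of specific binding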
[1] = read-out: Ligand Binding Assay, 100 pM [3H]compound, membranes with hNav1.7 and β1 subunit, 18 h, room temperature

Sequence of hNav1.7 (Q15858 other isoform, or with tags, fused parts or gaps): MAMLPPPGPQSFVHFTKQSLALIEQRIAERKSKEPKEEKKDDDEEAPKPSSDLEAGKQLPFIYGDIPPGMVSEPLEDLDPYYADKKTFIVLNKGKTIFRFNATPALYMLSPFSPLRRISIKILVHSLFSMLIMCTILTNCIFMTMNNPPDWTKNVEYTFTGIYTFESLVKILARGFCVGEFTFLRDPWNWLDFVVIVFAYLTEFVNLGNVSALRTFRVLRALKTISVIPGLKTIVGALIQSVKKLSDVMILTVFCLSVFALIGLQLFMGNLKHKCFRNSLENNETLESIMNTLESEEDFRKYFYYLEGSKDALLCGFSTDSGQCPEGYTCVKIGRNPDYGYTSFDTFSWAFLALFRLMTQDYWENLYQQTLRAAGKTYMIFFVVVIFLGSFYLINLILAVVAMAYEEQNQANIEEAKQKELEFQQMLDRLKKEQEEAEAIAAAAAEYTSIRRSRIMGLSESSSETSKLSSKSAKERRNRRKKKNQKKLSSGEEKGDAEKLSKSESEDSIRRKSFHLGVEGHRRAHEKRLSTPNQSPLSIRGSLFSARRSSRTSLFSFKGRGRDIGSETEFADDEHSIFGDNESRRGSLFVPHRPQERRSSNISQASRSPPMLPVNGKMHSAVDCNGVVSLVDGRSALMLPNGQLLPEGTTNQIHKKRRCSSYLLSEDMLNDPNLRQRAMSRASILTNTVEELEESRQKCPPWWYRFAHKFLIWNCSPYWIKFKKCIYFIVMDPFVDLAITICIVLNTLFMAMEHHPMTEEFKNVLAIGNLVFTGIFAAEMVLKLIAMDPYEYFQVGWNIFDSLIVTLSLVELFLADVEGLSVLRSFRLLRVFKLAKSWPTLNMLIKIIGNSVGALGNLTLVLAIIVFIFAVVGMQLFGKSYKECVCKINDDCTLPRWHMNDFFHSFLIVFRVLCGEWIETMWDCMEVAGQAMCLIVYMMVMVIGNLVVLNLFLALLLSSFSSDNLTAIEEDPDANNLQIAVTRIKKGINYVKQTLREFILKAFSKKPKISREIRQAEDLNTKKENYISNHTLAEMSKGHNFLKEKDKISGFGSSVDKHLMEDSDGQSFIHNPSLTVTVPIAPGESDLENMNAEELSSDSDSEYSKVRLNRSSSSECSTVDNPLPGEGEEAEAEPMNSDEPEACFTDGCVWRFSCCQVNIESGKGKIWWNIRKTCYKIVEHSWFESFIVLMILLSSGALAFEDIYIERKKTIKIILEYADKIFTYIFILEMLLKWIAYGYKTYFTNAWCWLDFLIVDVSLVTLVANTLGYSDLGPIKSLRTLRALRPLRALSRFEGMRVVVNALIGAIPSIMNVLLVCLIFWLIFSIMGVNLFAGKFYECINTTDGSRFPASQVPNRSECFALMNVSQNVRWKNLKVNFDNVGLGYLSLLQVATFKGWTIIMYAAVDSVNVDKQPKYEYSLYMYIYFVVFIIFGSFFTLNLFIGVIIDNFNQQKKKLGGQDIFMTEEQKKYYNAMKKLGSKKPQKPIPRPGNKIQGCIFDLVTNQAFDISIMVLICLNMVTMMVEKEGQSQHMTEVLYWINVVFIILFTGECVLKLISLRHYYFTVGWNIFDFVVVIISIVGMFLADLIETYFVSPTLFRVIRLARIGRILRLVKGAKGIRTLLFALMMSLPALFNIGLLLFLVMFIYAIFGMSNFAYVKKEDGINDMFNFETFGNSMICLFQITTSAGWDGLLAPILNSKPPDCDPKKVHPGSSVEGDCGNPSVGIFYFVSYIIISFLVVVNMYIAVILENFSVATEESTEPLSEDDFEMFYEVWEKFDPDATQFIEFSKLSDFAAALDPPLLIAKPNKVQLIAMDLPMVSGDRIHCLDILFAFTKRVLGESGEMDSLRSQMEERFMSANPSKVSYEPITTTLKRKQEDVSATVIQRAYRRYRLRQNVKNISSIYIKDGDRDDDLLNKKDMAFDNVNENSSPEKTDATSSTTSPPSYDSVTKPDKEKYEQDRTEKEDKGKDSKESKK
Sequence of hNav1.7 (Q07699 19-218 partner): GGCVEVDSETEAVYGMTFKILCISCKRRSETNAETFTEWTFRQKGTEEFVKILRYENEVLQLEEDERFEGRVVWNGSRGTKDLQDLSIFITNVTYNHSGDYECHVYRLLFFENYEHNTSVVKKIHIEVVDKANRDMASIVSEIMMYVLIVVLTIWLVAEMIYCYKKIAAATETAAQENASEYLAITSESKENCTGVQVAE

Row | IC50 [1] [nM] | IC50 [nM] | SMILES
1 | 47 |  | COc1ccc(CN2CCC(COc3cc(F)c(C(=O)NS(C)(=O)=O)cc3C3CC3)CC2)cc1Cl [Example 183, 4-((1-(3-Chloro-4-methoxybenzyl)piperidin-4-yl)methyoxy)-5-cyclopropyl-2-fluoro-N-(methylsulfonyl)benzamide]
2 | 9.5 |  | COc1cc(OC(F)(F)F)ccc1CN1CCC[C@@H](Oc2cc(F)c(C(=O)NS(C)(=O)=O)cc2C2CC2)C1 [Example 438, (R)-5-cyclopropyl-2-fluoro-4-((1-(2-methoxy-4-(trifluoromethoxy)benzyl)piperidin-3-yl)oxy)-N-(methylsulfonyl)benzamide, trifluoroacetic acid salt]
3 | 3.4 |  | O=C(NS(=O)(=O)N1CCC1)c1cc(C2CC2)c(OCC2CCN(Cc3cc(C(F)(F)F)cc(Cl)c3F)CC2)cc1F [Example 583, N-(azetidin-1-ylsulfonyl)-4-((1-(3-chloro-2-fluoro-5-(trifluoromethyl)benzyl)piperidin-4-yl)methoxy)-5-cyclopropyl-2-fluorobenzamide]
4 | 3.6 |  | CCS(=O)(=O)NC(=O)c1cc(C2CC2)c(OCC2CCN([C@H](C)c3ccc(Cl)cc3Cl)CC2)cc1F [Example 284, (R)-5-cyclopropyl-4-((1-(1-(2,4-dichlorophenyl)ethyl)piperidin-4-yl)methoxy)-N-(ethylsulfonyl)-2-fluorobenzamide]
5 | 2.4 |  | CC1(COc2cc(F)c(C(=O)NS(C)(=O)=O)cc2C2CC2)CN(C(c2ccccc2)c2cc(Cl)cc(Cl)c2)C1 (stereo not shown) [Example 420, 5-cyclopropyl-4-((1-((3,5-dichlorophenyl)(phenyl)methyl)-3-methylazetidin-3-yl)methoxy)-2-fluoro-N-(methylsulfonyl)benzamide, trifluoroacetic acid salt]
6 | 3.3 |  | CCS(=O)(=O)NC(=O)c1cc(C2CC2)c(OCC2(C)CN(c3ncc(C(F)(F)F)cc3Cl)C2)cc1F [Example 482, 4-((1-(3-chloro-5-(trifluoromethyl)pyridin-2-yl)-3-methylazetidin-3-yl)methoxy)-5-cyclopropyl-N-(ethylsulfonyl)-2-fluorobenzamide]
7 | 22.4 |  | C[C@@H](c1cc(Cl)cc(Cl)c1)N1CCC(COc2cc(F)c(C(=O)NS(C)(=O)=O)cc2Cl)CC1 [Example 402, (S)-5-chloro-4-((1-(1-(3,5-dichlorophenyl)ethyl)piperidin-4-yl)methoxy)-2-fluoro-N-(methylsulfonyl)benzamide, trifluoroacetic acid salt]
8 | 39 |  | C[C@H](c1ccc(OC(F)(F)F)cc1)N1CCC(C)(COc2cc(F)c(C(=O)NS(C)(=O)=O)cc2C2CC2)CC1 (single isomer, unassigned) [Example 249]
9 |  | 127 | O=C(NS(=O)(=O)C1CC1)c1cc(C2CC2)c(CN2CCC(S(=O)(=O)c3cc(Cl)cc(Cl)c3)CC2)cc1F [Example 533, 5-cyclopropyl-N-(cyclopropylsulfonyl)-4-((4-((3,5-dichlorophenyl)sulfonyl)piperidin-1-yl)methyl)-2-fluorobenzamide, trifluoroacetic acid salt]
10 | 10 |  | O=C(NS(=O)(=O)C1CC1)c1cc(C2CC2)c(OCC2CCN(S(=O)(=O)c3ccc(C(F)(F)F)cc3Cl)CC2)cc1F [Example 385, 4-((1-((2-chloro-4-(trifluoromethyl)phenyl)sulfonyl)piperidin-4-yl)methoxy)-5-cyclopropyl-N-(cyclopropylsulfonyl)-2-fluorobenzamide]
11 | 2 |  | CS(=O)(=O)NC(=O)c1cc(C2CC2)c(OCC2CCN(C(c3cccc(Cl)c3)c3cccc(Cl)c3)CC2)cc1F [Example 352, 4-((1-(bis(3-chlorophenyl)methyl)piperidin-4-yl)methoxy)-5-cyclopropyl-2-fluoro-N-(methylsulfonyl)benzamide, trifluoroacetic acid salt]
12 | 17.6 |  | CS(=O)(=O)NC(=O)c1cc(Cl)c(OCC2CCN(Cc3cc(Cl)cc(OC(F)(F)F)c3)CC2)cc1F [Example 406, 5-chloro-4-((1-(3-chloro-5-(trifluoromethoxy)benzyl)piperidin-4-yl)methoxy)-2-fluoro-N-(methylsulfonyl)benzamide, trifluoroacetic acid salt]
13 | 5.3 |  | C[C@H](c1cc(Cl)cc(Cl)c1)N1CCC(F)(COc2cc(F)c(C(=O)NS(C)(=O)=O)cc2C2CC2)CC1 [Example 351, (R)-5-cyclopropyl-4-((1-(1-(3,5-dichlorophenyl)ethyl)-4-fluoropiperidin-4-yl)methoxy)-2-fluoro-N-(methylsulfonyl)benzamide, trifluoroacetic acid]
14 | 6.7 |  | CCS(=O)(=O)NC(=O)c1cc(C2CC2)c(OCC2CCN(Cc3cc(C(F)(F)F)cc(C4CC4)n3)CC2)cc1F [Example 307, 5-cyclopropyl-4-((1-((6-cyclopropyl-4-(trifluoromethyl)pyridin-2-yl)methyl)piperidin-4-yl)methoxy)-N-(ethylsulfonyl)-2-fluorobenzamide]
15 | 6.1 |  | CS(=O)(=O)NC(=O)c1cc(C2CC2)c(O[C@H]2CN(Cc3ccc(F)cc3Cl)CC(F)(F)C2)cc1F [Example 445, (R)-4-((1-(2-chloro-4-fluorobenzyl)-5,5-difluoropiperidin-3-yl)oxy)-5-cyclopropyl-2-fluoro-N-(methylsulfonyl)benzamide]
16 | 1380 |  | O=C(NS(=O)(=O)C1CC1)c1cc(C2CC2)c(OCC2CCN(S(=O)(=O)C3COC3)CC2)cc1F [Example 393, 5-cyclopropyl-N-(cyclopropylsulfonyl)-2-fluoro-4-((1-(oxetan-3-ylsulfonyl)piperidin-4-yl)methoxy)benzamide]

Row | IC50 [1] [nM] | IC50 [nM] | SMILES
17 | 9.94 |  | CS(=O)(=O)NC(=O)c1cc(C2CC2)c(OCC2CN([C@H](c3ccccc3)c3ccccc3Cl)C2)cc1F [Example 151, (R)-4-((1-((2-Chlorophenyl)(phenyl)methyl)azetidin-3-yl)methoxy)-5-cyclopropyl-2-fluoro-N-(methylsulfonyl)benzamide]
18 |  | 2.1 | C[C@H](c1cc(Cl)cc(Cl)c1)N1CCC[C@@H](Oc2cc(F)c(C(=O)NS(C)(=O)=O)cc2C2CC2)C1 (single isomer, unassigned) [Example 51]
19 | 7.27 |  | CC(C)Oc1ncc([C@H](c2ccccc2)N2CC(COc3cc(F)c(C(=O)NS(C)(=O)=O)cc3C3CC3)C2)cc1Cl [Example 114, (S)-4-((1-((5-Chloro-6-isopropoxypyridin-3-yl)(phenyl)methyl)azetidin-3-yl)methoxy)-5-cyclopropyl-2-fluoro-N-(methylsulfonyl)benzamide]
20 | 3.5 |  | CS(=O)(=O)NC(=O)c1cc(C2CC2)c(OCC2CCN(Cc3ccc(Br)cc3C(F)(F)F)CC2)cc1F [Example 585, 4-((1-(4-bromo-2-(trifluoromethyl)benzyl)piperidin-4-yl)methoxy)-5-cyclopropyl-2-fluoro-N-(methylsulfonyl)benzamide]
21 |  | 3.1 | CC1(C)CN(Cc2cc(F)c(C(=O)NS(=O)(=O)C3CC3)cc2C2CC2)CCC1Oc1cc(C(F)(F)F)c(Cl)cn1 (stereo not shown) [Example 562, 4-((4-((5-chloro-4-(trifluoromethyl)pyridin-2-yl)oxy)-3,3-dimethylpiperidin-1-yl)methyl)-5-cyclopropyl-N-(cyclopropylsulfonyl)-2-fluorobenzamide, trifluoroacetic acid salt]
22 | 18.5 |  | CS(=O)(=O)NC(=O)c1cc(C2CC2)c(OCC2CCN(S(=O)(=O)c3ccc(Br)c(Cl)c3)CC2)cc1F [Example 390, 4-((1-((4-bromo-3-chlorophenyl)sulfonyl)piperidin-4-yl)methoxy)-5-cyclopropyl-2-fluoro-N-(methylsulfonyl)benzamide]
23 |  | 20.4 | CS(=O)(=O)NC(=O)c1cc(C2CC2)c(OCC2CN([C@H](c3ccccc3)c3ccc(C#N)cc3)C2)cc1F [Example 111, (R)-4-((1-((4-Cyanophenyl)(phenyl)methyl)azetidin-3-yl)methoxy)-5-cyclopropyl-2-fluoro-N-(methylsulfonyl)benzamide]
24 |  | 2.4 | O=C(NS(=O)(=O)C1CC1)c1cc(C2CC2)c(O[C@@H]2CCCN(Cc3ccc(F)cc3C(F)(F)F)C2)cc1F [Example 35]
25 | 5.6 |  | CC(C)Oc1ncc(CN2CCC(COc3cc(F)c(C(=O)NS(C)(=O)=O)cc3C3CC3)CC2)cc1Cl [Example 128, 4-((1-((5-Chloro-6-isopropoxypyridin-3-yl)methyl)piperidin-4-yl)methoxy)-5-cyclopropyl-2-fluoro-N-(methylsulfonyl)benzamide]
26 | 1370 |  | CS(=O)(=O)NC(=O)c1cc(C2CC2)c(OCC2CN(S(=O)(=O)c3ccccc3)C2)cc1F [Example 129, 5-Cyclopropyl-2-fluoro-N-(methylsulfonyl)-4-((1-(phenylsulfonyl)-azetidin-3-yl)methoxy)benzamide]
27 | 6.1 |  | CS(=O)(=O)NC(=O)c1cc(C2CC2)c(OCC2CCN(Cc3ccc(C4CC4)cc3Cl)CC2)cc1F [Example 415, 4-((1-(2-chloro-4-cyclopropylbenzyl)piperidin-4-yl)methoxy)-5-cyclopropyl-2-fluoro-N-(methylsulfonyl)benzamide, trifluoroacetic acid salt]
28 | 32 |  | CS(=O)(=O)NC(=O)c1cc(C2CC2)c(OCC2CCN(Cc3ccccc3Cl)CC2)cc1F [Example 191, 4-((1-(2-Chlorobenzyl)piperidin-4-yl)methoxy)-5-cyclopropyl-2-fluoro-N-(methylsulfonyl)benzamide]
29 | 2.9 |  | C[C@H](c1cc(Cl)cc(Cl)c1F)N1CCC(COc2cc(F)c(C(=O)NS(C)(=O)=O)cc2C2CC2)CC1 (single isomer, unassigned) [Example 237]
30 | 11 |  | O=C(NS(=O)(=O)N1CCC1)c1cc(C2CC2)c(OCC2CCN(c3ccccc3)CC2)cc1F [Example 291, N-(azetidin-1-ylsulfonyl)-5-cyclopropyl-2-fluoro-4-((1-phenylpiperidin-4-yl)methoxy)benzamide]
31 | 1400 |  | CS(=O)(=O)NC(=O)c1cc(C2CC2)c(OCC2CCN([C@@H]3c4ccccc4C[C@@H]3O)CC2)cc1F [Example 199, 5-Cyclopropyl-2-fluoro-4-((1-((1R,2S)-2-hydroxy-2,3-dihydro-1H-inden-1-yl)piperidin-4-yl)methoxy)-N-(methylsulfonyl)benzamide]
